ChEMBL document CHEMBL4414679, “Discovery of 4,6-pyrimidinediamine derivatives as novel dual EGFR/FGFR inhibitors aimed EGFR/FGFR1-positive NSCLC” (Eur J Med Chem, 2020)
Calls of active or inactive are those of the source. The calls are words filed in the database; no cut-off is given here.

Assays:
[1] = tested on: NCI-H226; experiment: Induction of apoptosis in human NCI-H226 cells assessed as late apoptotic cells at 1 uM measured after 24 hrs by Annexin-V/propidium iodide staining-based flow cytometric analysis (reference value: 2.8%); format: functional
[2] = biological target: T1, Epidermal growth factor receptor (Homo sapiens, UniProt P00533); experiment: Inhibition of EGF-induced EGFR phosphorylation in serum-starved human HCC827 cells upto 10 uM incubated for 1 hr by Western blot analysis; format: cell-based
T1 sequence (P00533 whole entry): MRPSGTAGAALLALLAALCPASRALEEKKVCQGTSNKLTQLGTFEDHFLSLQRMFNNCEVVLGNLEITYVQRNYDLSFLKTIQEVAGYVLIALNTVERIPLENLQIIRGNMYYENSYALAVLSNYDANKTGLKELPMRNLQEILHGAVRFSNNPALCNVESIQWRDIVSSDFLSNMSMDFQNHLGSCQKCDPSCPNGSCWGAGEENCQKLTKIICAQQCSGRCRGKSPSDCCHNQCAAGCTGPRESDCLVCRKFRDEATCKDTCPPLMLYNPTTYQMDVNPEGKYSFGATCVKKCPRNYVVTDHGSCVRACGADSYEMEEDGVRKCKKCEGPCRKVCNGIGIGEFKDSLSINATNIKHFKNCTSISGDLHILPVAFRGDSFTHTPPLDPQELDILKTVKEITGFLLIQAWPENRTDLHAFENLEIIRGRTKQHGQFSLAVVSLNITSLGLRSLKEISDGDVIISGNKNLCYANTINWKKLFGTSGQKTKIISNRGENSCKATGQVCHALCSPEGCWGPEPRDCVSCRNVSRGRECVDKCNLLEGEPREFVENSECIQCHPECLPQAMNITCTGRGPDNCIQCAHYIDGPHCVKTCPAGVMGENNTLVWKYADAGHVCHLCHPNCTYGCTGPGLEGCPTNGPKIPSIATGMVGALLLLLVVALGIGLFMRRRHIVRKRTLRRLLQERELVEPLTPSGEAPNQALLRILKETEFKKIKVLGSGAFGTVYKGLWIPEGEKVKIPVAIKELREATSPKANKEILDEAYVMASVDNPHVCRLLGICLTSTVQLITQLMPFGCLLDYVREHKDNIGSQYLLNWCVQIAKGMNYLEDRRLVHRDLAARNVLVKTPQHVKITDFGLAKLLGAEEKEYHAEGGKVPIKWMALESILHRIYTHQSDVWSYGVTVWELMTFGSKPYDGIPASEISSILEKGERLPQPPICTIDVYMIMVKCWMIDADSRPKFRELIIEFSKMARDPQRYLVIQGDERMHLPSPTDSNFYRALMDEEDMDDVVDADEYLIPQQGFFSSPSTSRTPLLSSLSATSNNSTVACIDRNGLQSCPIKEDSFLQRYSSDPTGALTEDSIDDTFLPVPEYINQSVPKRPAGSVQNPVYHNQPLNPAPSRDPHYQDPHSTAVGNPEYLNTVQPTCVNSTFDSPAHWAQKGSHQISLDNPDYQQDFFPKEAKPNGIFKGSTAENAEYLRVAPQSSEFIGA

[3] = tested on: NCI-H226; experiment: Induction of apoptosis in human NCI-H226 cells assessed as necrotic cells at 5 uM measured after 24 hrs by Annexin-V/propidium iodide staining-based flow cytometric analysis (reference value: 3%); format: functional
[4] = tested on: NCI-H226; experiment: Induction of apoptosis in human NCI-H226 cells assessed as viable cells at 1 uM measured after 24 hrs by Annexin-V/propidium iodide staining-based flow cytometric analysis (reference value: 93.4%); format: functional; conditions: NCI-H226, 24 h, read-out: Activity
[5] = Induction of apoptosis in gefitinib-insensitive human HCC827GR cells assessed as viable cells at 10 uM measured after 24 hrs by Annexin-V/propidium iodide staining-based flow cytometric analysis (reference value: 90.8%); format: functional; conditions: read-out: Activity
[6] = Antiproliferative activity against gefitinib-resistant human HCC827GR cells incubated for 48 hrs by MTT assay; format: functional
[7] = Induction of apoptosis in gefitinib-insensitive human HCC827GR cells assessed as necrotic cells at 10 uM measured after 24 hrs by Annexin-V/propidium iodide staining-based flow cytometric analysis (reference value: 5.8%); format: functional
[8] = tested on: Mus musculus; experiment: Down regulation of FGFR1 phosphorylation in BALB/c nude mouse xenografted with human HCC827GR cells at 15 mg/kg, ip dosed by western blot analysis; format: functional, organism-based
[9] = biological target: T1, Epidermal growth factor receptor; experiment: Inhibition of EGFR in serum-starved human HCC827 cells assessed as reduction in EGF-induced AKT phosphorylation upto 10 uM incubated for 1 hr by Western blot analysis; format: cell-based
[10] = tested on: NCI-H226; experiment: Induction of apoptosis in human NCI-H226 cells assessed as early apoptotic cells at 1 uM measured after 24 hrs by Annexin-V/propidium iodide staining-based flow cytometric analysis (reference value: 0.8%); format: functional
[11] = biological target: Platelet-derived growth factor receptor beta (Homo sapiens) (UniProt P09619); experiment: Inhibition of N-terminal GST tagged human PDGFRbeta cytoplasmic domain (557 to 1106 AA) expressed in baculovirus at 10 uM using FAM-labelled peptide as substrate pre-incubated for 10 mins followed by substrate addition by mobility shift assay relative to control
[12] = tested on: PC-9; experiment: Antiproliferative activity against human PC9 cells incubated for 48 hrs by MTT assay; format: functional, cell-based; conditions: PC-9, 48 h
[13] = biological target: Tyrosine-protein kinase JAK3 (Homo sapiens) (UniProt P52333); experiment: Inhibition of N-terminal GST tagged human JAK3 catalytic domain (795 to 1124 AA) expressed in baculovirus at 10 uM using FAM-labelled peptide as substrate pre-incubated for 10 mins followed by substrate addition by mobility shift assay relative to control
Chain of Tyrosine-protein kinase JAK3 (Homo sapiens) (P52333 whole entry, the tested form may be a part): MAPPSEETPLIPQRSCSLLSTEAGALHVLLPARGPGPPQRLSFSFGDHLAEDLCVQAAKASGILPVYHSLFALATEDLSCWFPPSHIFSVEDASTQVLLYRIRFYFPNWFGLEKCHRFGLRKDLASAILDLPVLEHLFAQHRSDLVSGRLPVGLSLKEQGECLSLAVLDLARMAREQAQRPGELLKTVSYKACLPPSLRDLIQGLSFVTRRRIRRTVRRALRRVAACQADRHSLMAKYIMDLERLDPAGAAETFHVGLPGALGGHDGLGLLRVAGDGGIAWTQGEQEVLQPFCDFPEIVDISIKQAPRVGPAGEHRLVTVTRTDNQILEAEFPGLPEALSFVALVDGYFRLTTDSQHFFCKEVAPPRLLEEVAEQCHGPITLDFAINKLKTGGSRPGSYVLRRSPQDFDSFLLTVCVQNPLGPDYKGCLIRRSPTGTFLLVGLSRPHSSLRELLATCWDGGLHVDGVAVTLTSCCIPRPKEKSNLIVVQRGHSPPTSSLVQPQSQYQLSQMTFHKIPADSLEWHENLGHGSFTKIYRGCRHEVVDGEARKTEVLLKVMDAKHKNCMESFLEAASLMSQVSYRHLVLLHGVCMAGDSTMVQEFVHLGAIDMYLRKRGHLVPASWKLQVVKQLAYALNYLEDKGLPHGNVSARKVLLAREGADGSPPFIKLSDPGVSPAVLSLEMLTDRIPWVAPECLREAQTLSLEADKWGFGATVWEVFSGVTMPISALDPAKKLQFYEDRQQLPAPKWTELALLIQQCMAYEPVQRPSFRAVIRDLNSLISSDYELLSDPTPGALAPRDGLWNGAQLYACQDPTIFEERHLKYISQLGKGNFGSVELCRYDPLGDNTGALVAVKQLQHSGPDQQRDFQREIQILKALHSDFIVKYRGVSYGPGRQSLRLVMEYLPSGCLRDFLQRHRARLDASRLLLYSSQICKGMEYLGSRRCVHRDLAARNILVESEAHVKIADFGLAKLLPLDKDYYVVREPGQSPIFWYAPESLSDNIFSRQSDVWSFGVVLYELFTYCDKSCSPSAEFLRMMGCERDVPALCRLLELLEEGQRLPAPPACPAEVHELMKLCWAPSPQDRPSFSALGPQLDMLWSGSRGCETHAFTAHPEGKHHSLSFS

[14] = biological target: CDK6/cyclin D3 (Homo sapiens) (UniProt P30281+Q00534); experiment: Inhibition of N-terminal GST tagged truncated human CDK6 (1 to 326 AA) coexpressed with CyclinD3 (1 to 292 AA) in baculovirus at 10 uM using FAM-labelled peptide as substrate pre-incubated for 10 mins followed by substrate addition by mobility shift assay relative to control; format: protein-complex assay
[15] = biological target: Proto-oncogene tyrosine-protein kinase Src (Homo sapiens) (UniProt P12931); experiment: Inhibition of full length N-terminal GST-tagged human SRC (1 to 536 AA) expressed in baculovirus at 10 uM using FAM-labelled peptide as substrate pre-incubated for 10 mins followed by substrate addition by mobility shift assay relative to control
Chain of Proto-oncogene tyrosine-protein kinase Src (Homo sapiens) (P12931 2-536 limits assumed): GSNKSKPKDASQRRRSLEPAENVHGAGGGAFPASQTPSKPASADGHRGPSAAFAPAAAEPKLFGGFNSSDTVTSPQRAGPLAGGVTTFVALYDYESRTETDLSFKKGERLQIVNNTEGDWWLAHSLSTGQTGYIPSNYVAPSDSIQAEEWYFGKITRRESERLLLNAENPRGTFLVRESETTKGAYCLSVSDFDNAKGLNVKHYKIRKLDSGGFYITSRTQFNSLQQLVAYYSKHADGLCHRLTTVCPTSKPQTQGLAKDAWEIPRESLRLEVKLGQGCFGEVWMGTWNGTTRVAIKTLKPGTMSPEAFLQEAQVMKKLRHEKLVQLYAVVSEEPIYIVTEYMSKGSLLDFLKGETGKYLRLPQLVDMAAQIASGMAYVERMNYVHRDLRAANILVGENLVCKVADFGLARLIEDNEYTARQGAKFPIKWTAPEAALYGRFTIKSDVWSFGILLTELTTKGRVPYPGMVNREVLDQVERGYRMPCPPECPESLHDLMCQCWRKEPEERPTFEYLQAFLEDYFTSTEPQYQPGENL

[16] = biological target: CDK4/Cyclin D3 (Homo sapiens) (UniProt P11802+P30281); experiment: Inhibition of N-terminal GST tagged truncated human CDK4 (1 to 303 AA) coexpressed with CyclinD3 (1 to 292 AA) in baculovirus at 10 uM using FAM-labelled peptide as substrate pre-incubated for 10 mins followed by substrate addition by mobility shift assay relative to control; format: protein-complex assay
[17] = biological target: T2, Fibroblast growth factor receptor 1 (Homo sapiens, UniProt P11362); experiment: Inhibition of FGFR1 in gefitinib-insensitive human HCC827GR cells assessed as reduction in FGF-induced FGFR1 phosphorylation upto 10 uM measured after 2 hrs by western blot analysis
T2 sequence (P11362 22-822 limits assumed): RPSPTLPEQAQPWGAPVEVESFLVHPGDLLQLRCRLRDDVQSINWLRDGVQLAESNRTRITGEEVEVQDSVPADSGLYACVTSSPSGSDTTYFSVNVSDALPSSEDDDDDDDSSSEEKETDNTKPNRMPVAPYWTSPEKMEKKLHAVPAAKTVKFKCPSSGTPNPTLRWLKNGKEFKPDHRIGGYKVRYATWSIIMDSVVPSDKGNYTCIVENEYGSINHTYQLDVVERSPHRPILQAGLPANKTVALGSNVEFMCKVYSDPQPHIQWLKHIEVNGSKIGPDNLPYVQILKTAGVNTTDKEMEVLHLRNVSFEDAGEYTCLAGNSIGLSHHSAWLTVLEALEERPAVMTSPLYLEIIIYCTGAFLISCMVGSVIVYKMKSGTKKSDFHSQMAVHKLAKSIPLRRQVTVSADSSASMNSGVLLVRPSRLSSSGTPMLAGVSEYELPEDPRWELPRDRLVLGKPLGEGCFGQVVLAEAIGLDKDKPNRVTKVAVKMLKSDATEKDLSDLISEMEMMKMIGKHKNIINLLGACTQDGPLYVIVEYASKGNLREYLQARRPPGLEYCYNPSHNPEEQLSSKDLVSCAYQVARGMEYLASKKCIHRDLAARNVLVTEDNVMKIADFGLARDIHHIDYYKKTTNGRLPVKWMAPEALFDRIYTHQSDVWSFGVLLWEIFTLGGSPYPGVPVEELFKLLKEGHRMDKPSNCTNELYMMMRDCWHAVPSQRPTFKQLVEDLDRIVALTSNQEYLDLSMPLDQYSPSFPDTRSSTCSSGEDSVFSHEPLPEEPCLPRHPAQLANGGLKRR

[18] = biological target: T1, Epidermal growth factor receptor; experiment: Inhibition of EGFR in gefitinib-insensitive human HCC827GR cells assessed as reduction in EGF-induced Akt phosphorylation upto 10 uM measured after 2 hrs by western blot analysis
[19] = biological target: RAC-alpha serine/threonine-protein kinase (Homo sapiens) (UniProt P31749); experiment: Inhibition of N-terminal GST tagged human AKT1 catalytic domain (104 to 480 AA) expressed in baculovirus at 10 uM using FAM-labelled peptide as substrate pre-incubated for 10 mins followed by substrate addition by mobility shift assay relative to control
Chain of RAC-alpha serine/threonine-protein kinase (Homo sapiens) (P31749 whole entry, the tested form may be a part): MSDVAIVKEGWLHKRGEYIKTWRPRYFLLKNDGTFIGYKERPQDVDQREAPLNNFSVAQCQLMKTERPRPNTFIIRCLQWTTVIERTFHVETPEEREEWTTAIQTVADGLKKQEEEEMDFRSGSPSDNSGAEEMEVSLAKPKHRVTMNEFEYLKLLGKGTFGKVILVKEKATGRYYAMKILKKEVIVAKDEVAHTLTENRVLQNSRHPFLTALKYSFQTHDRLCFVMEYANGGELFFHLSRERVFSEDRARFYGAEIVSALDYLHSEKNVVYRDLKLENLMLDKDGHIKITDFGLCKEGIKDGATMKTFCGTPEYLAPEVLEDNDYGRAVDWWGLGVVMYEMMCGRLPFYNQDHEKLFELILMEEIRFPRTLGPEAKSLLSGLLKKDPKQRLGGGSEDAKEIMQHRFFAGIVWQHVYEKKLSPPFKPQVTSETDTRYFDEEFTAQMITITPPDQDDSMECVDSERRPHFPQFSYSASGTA

[20] = Induction of apoptosis in gefitinib-insensitive human HCC827GR cells assessed as early apoptotic cells at 2.5 uM measured after 24 hrs by Annexin-V/propidium iodide staining-based flow cytometric analysis (reference value: 1.9%); format: functional
[21] = Induction of apoptosis in gefitinib-insensitive human HCC827GR cells assessed as necrotic cells at 2.5 uM measured after 24 hrs by Annexin-V/propidium iodide staining-based flow cytometric analysis (reference value: 5.8%); format: functional
[22] = Toxicity in BALB/c nude mouse xenografted with human HCC827GR cells assessed as body weight at 15 mg/kg, ip dosed measured every 2 days upto 24 days; format: organism-based; conditions: in vivo
[23] = biological target: Mitogen-activated protein kinase 8 (Homo sapiens) (UniProt P45983); experiment: Inhibition of human full length His-tagged JNK1 expressed in baculovirus expression system at 10 uM using FAM-labelled peptide as substrate pre-incubated for 10 mins followed by substrate addition by mobility shift assay relative to control
Chain of Mitogen-activated protein kinase 8 (Homo sapiens) (P45983 whole entry): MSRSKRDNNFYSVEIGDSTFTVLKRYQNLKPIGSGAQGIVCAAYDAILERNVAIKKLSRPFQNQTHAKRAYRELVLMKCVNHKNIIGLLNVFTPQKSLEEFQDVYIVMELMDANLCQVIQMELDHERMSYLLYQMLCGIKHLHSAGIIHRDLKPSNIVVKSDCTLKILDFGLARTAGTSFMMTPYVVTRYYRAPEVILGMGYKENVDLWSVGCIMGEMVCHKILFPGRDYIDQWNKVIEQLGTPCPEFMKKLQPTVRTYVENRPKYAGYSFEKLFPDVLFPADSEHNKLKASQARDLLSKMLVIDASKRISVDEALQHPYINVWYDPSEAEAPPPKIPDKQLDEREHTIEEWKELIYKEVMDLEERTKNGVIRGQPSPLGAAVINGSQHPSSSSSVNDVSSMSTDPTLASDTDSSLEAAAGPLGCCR

[24] = tested on: PC-9; experiment: Antiproliferative activity against human PC9 cells assessed as inhibition of cell growth at 10 uM incubated for 48 hrs by MTT assay relative to control; format: functional; conditions: PC-9, 48 h
[25] = biological target: T1, Epidermal growth factor receptor; experiment: Inhibition of N-terminal GST-tagged human EGFR (d746-750AA) expressed in baculovirus using FAM-labelled peptide as substrate pre-incubated for 10 mins followed by substrate addition by mobility shift assay
[26] = tested on: NCI-H226; experiment: Induction of apoptosis in human NCI-H226 cells assessed as late apoptotic cells at 10 uM measured after 24 hrs by Annexin-V/propidium iodide staining-based flow cytometric analysis (reference value: 2.8%); format: functional
[27] = biological target: T2, Fibroblast growth factor receptor 1; experiment: Inhibition of N-terminal GST-tagged human FGFR1 cytoplasmic domain (398-822 AA) expressed in baculovirus at 10 uM using FAM-labelled peptide as substrate pre-incubated for 10 mins followed by substrate addition by mobility shift assay relative to control
[28] = Cmax in Sprague-Dawley rat at 30 mg/kg, po measured upto 24 hrs by UPLC-MS/MS; format: ADME, organism-based; parameters: dose 30 mg/kg, route oral; conditions: in vivo
[29] = biological target: Epidermal growth factor receptor (Homo sapiens, UniProt P00533, L858R); experiment: Inhibition of recombinant human EGFR L858R mutant expressed in baculovirus using FAM-labelled peptide as substrate pre-incubated for 10 mins followed by substrate addition by mobility shift assay

SMILES: COc1ccc(OC)c(Nc2cc(NC(=O)Nc3c(Cl)cccc3Cl)ncn2)c1
- Activity [1]: 3.5%
- inhibition [2]: Active
- Activity [3]: 5.2%
- viability at 1 µM [4]: 87.7%
- viability at 10 µM [5]: 51.5%
- IC50 [6]: 930 nM
- Activity [7]: 5.4%
- Activity [8]: Active
- inhibition [9]: Active
- Activity [10]: 3%
- inhibition [11]: 56.2%
- IC50 [12]: 1340 nM
- inhibition [13]: 3.36%
- inhibition [14]: 9.31%
- inhibition [15]: 45.8%
- inhibition [16]: 12.5%
- inhibition [17]: Active
- inhibition [18]: Active
- inhibition [19]: 19.4%
- Activity [20]: 2.5%
- Activity [21]: 4.5%
- Activity [22]: Non-Toxic
- inhibition [23]: 3.79%
- inhibition at 10 µM [24]: 95%
- IC50 [25]: 73 nM
- Activity [26]: 11.9%
- inhibition [27]: 88.5%
- Cmax [28]: 1270 ng/mL
- IC50 [29]: 39 nM
